Where a name gives a salt, the structure may show the parent alone.

The first assay deals with ionophore-induced LTB4 production.
Assay: not given
Particulars: oral administration; cited from earlier work.
Consider `CN(CCCOc1ccc(Cc2ccccc2)cc1)CCC(=O)O.Cl` [SC57461], for which the “inhibition of ionophore-induced LTB4 production in rat peritoneum in vivo” value was “caused inhibition of ionophore-induced LTB4 production”.

A further assay has as its system neutrophil influx (myeloperoxidase activity) in arachidonic acid-treated ear. Briefly: Murine arachidonic acid-induced inflammation model: neutrophil influx by myeloperoxidase (MPO) activity in ear biopsies. The class given is in vivo, mouse (female Balb/c). Particulars: Mus musculus, TABLE 7, 30 mg/kg oral gavage, ear biopsies 3 h after topical arachidonic acid (given 60 min after dose), read-out: % Inh. MPO. How it is done: Murine Arachidonic Acid-induced Inflammation Model LTA4H inhibitor compounds of the present invention were dissolved in 20% cyclodextran/H2O at a concentration of 3 mg/mL. The solutions were administered by oral gavage to female Balb/c mice weighing approximately 20 grams each (0.2 mL per mouse, 30 mg of LTA4H inhibitor compound per kg). Sixty minutes after being administered an LTA4 inhibitor, each mouse received topical application of 20 μL of arachidonic acid (100 mg/mL in acetone) to the left ear and 20 μL of acetone only to the right ear. After 3 h, the mice were sacrificed, blood was withdrawn in heparinized syringes, and 8 mm ear biopsies were taken. Ear biopsies were weighed to determine edema and then frozen at -80° C. until needed for determination of neutrophil influx. Neutrophil influx was quantified by measuring the activity of myeloperoxidase (MPO), a neutrophil-specific enzyme. […] Debris was removed by centrifugation at 14000×g for 10 min. […] The microtiter plate contents were held at room temperature for 1 h. The reaction was stopped by addition of 100 μ[…] H2SO4 to each sample well, and the myeloperoxidase activity in each sample was determined from the absorbance at 405 nm. The background value from the right ear, treated only with acetone, was subtracted from that for the left ear, treated with arachidonic acid in acetone, for each animal. The percent inhibition of neutrophil influx (% Inh. MPO) by compounds of the invention was determined by comparison to animals treated identically, except that the solution administered by oral gavage was devoid of inhibitor compound.
On to `OC1(c2ccccc2)CCN(CCCOc2ccc(Oc3nc4ccccc4o3)cc2)CC1` [Example 27, 1-{3-[4-(Benzooxazol-2-yloxy)-phenoxy]-propyl}-4-phenyl-piperidin-4-ol], for which the inhibition at 30 mg/kg was 72%. For the molecule `c1ccc2oc(Oc3ccc(OCCN4CCCCC4)cc3)nc2c1` [Example 11, 2-[4-(2-Piperidin-1-yl-ethoxy)-phenoxy]-benzooxazole], the inhibition at 30 mg/kg was 95%. For the molecule `OC1CCN(CCOc2ccc(Oc3nc4ccccc4o3)cc2)CC1` [Example 14, 1-{2-[4-(Benzooxazol-2-yloxy)-phenoxy]-ethyl}-piperidin-4-ol], the inhibition at 30 mg/kg is 56%.

Still in this assay, the particulars now being: Mus musculus, TABLE 8, 30 mg/kg oral gavage, ear biopsies 3 h after topical arachidonic acid (given 60 min after dose), read-out: % Inh. MPO.
For `O=C1C[C@H](O)CN1C1CCN(Cc2ccc(Oc3nc4ccccc4s3)cc2)CC1` [Example 447, 1-{1-[4-(Benzothiazol-2-yloxy)-benzyl]-piperidin-4-yl}-4-hydroxy-pyrrolidin-2-one], the inhibition at 30 mg/kg came to 48%.

With `OCC1CCCCN1CCOc1ccc(Oc2nc3ccccc3s2)cc1` (stereo not drawn) [Example 263, (1-{2-[4-(Benzothiazol-2-yloxy)-phenoxy]-ethyl}-piperidin-2-yl)-methanol], the inhibition at 30 mg/kg amounted to 19%. With `CS(=O)(=O)NC1CCN(Cc2ccc(Oc3nc4ccccc4s3)cc2)CC1` [Example 361, N-{1-[4-(Benzothiazol-2-yloxy)-benzyl]-piperidin-4-yl}-methanesulfonamide], the inhibition at 30 mg/kg was found to be 90%. For the molecule `O=C(O)C1CCCN(CCc2ccc(Oc3nc4ccccc4s3)cc2)C1` (stereo not drawn) [Example 155, 1-{2-[4-(Benzothiazol-2-yloxy)-phenyl]-ethyl}-piperidine-3-carboxylic acid], the inhibition at 30 mg/kg was 93%. On the same count and under the same terms, with `O=C(O)C1CCN(CCc2ccc(Oc3nc4ccccc4s3)cc2)CC1` [Example 150, 1-{2-[4-(Benzothiazol-2-yloxy)-phenyl]-ethyl}-piperidine-4-carboxylic acid] the figure was 91%; with `O=C(O)C1CCN(Cc2ccc(Oc3nc4ccccc4s3)cc2)CC1` [Example 250, 1-[4-(Benzothiazol-2-yloxy)-benzyl]-piperidine-4-carboxylic acid], 94%; with `O=C1C[C@@H](O)CN1C1CCN(Cc2ccc(Oc3nc4ccccc4s3)cc2)CC1` [Example 446, 1-{1-[4-(Benzothiazol-2-yloxy)-benzyl]-piperidin-4-yl}-4-hydroxy-pyrrolidin-2-one], 43%. For the molecule `O=C(CO)N1CCN(CCc2ccc(Oc3nc4ccccc4s3)cc2)CC1` [Example 325, 1-(4-{2-[4-(Benzothiazol-2-yloxy)-phenyl]-ethyl}-piperazin-1-yl)-2-hydroxy-ethanone], the inhibition at 30 mg/kg turned out to be 67%. Regarding `NC(=O)C1CCN(Cc2ccc(Oc3nc4ccccc4s3)cc2)CC1` [Example 274, 1-[4-(Benzothiazol-2-yloxy)-benzyl]-piperidine-4-carboxylic acid amide], the inhibition at 30 mg/kg came out at 87%. Consider `c1ccc2sc(Oc3ccc(OCCn4nnnc4C4CCNCC4)cc3)nc2c1` [Example 206, 2-{4-[2-(5-Piperidin-4-yl-tetrazol-1-yl)-ethoxy]-phenoxy}-benzothiazole], for which the inhibition at 30 mg/kg is 76%. For `O=C1C[C@H](O)CN1C1CCN(CCc2ccc(Oc3nc4ccccc4s3)cc2)CC1` [Example 336, (S)-1-(1-{2-[4-(Benzothiazol-2-yloxy)-phenyl]-ethyl}-piperidin-4-yl)-4-hydroxy-pyrrolidin-2-one], the inhibition at 30 mg/kg is 0%.

The same assay, now with this note: Mus musculus, po, read-out: % Inh. MPO.
In the case of `O=C(O)C1CCN(CCOc2ccc(Oc3nc4ccccc4s3)cc2)CC1` [Example 18, 1-{2-[4-(Benzothiazol-2-yloxy)-phenoxy]-ethyl}-piperidine-4-carboxylic acid potassium salt], the inhibition at 30 mg/kg stood at 83%.

Another assay has as its system colitis symptoms.
Assay: not given
The note with it: eight weeks of treatment; cited from earlier work.
In the case of `CN(CCCOc1ccc(Cc2ccccc2)cc1)CCC(=O)O.Cl` [SC57461], the colitis symptoms result is given as “significantly improved colitis symptoms”.

The subject of a further assay is ionophore-induced LTB4 production.
Assay: not given
Particulars: oral administration; cited from earlier work. This is another data set of the same source.
Take `CN(CCCOc1ccc(Cc2ccccc2)cc1)CCC(=O)O.Cl` [SC57461]: the “inhibition of ionophore-induced LTB4 production in mouse blood ex vivo” value was “caused inhibition of ionophore-induced LTB4 production”.

Source of the values: patent US20050043379A1, “LTA4H Modulators” (priority 2003, published 2005).
